Calls of active or inactive are those of the source. The rule behind the calls is not given here.
How the values were obtained:
[1] = target: T1, Transient receptor potential cation channel subfamily V member 1 (Homo sapiens, UniProt Q8NER1); assay: Agonist activity at human TRPV1 expressed in T-REx HEK cells assessed as increase in intracellular Ca2+ accumulation by Fluo-4 AM dye based fluorescence assay relative to ionomycin; assay type: cell-based
[2] = target: T1, Transient receptor potential cation channel subfamily V member 1; assay: Antagonist activity against human TRPV1 expressed in T-REx HEK cells assessed as inhibition of capsaicin-induced increase in intracellular Ca2+ accumulation pre-incubated for 3 mins prior to capsaicin stimulation by Fluo-4 AM dye based fluorescence assay; assay type: cell-based
[3] = target: T2, Transient receptor potential cation channel subfamily M member 8 (Mus musculus, UniProt Q8R4D5); assay: Antagonist activity against mouse TRPM8 expressed in T-REx HEK cells assessed as inhibition of menthol-induced increase in intracellular Ca2+ accumulation pre-incubated for 3 mins prior to menthol stimulation by Fluo-4 AM dye based fluorescence assay; assay type: cell-based
T2 sequence (Q8R4D5 whole entry): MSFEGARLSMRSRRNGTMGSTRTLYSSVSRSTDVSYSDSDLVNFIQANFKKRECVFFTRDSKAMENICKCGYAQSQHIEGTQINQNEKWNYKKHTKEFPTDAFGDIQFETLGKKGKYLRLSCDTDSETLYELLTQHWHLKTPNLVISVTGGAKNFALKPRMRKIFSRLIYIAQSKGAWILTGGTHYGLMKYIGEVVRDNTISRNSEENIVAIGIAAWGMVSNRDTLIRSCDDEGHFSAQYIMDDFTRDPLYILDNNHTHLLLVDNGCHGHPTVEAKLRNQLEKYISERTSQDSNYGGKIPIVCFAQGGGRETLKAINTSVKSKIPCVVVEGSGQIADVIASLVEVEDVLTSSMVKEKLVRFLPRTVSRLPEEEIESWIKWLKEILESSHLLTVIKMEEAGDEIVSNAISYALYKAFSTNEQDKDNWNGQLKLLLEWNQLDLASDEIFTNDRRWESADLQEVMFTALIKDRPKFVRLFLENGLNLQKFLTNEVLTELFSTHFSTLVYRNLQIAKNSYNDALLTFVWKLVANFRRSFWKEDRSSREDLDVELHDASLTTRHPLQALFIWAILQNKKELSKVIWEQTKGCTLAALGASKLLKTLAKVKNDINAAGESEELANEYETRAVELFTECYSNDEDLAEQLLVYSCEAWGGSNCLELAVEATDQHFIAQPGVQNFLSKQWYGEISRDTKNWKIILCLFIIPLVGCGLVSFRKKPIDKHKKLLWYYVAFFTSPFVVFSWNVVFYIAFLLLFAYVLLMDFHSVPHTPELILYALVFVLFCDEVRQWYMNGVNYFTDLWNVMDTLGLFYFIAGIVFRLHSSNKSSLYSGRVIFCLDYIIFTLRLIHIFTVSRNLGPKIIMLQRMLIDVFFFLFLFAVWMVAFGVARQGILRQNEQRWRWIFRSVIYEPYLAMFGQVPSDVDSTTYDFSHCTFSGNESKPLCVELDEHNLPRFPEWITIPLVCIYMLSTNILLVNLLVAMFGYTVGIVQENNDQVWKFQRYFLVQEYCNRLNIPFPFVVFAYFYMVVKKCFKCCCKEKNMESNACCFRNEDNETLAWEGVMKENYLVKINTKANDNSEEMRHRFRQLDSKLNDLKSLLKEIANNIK

[4] = target: T3, Transient receptor potential cation channel subfamily A member 1 (Homo sapiens, UniProt O75762); assay: Antagonist activity against human TRPA1 expressed in T-REx HEK cells assessed as inhibition of AITC-induced increase in intracellular Ca2+ accumulation pre-incubated for 3 mins prior to AITC stimulation by Fluo-4 AM dye based fluorescence assay; assay type: cell-based
T3 sequence (O75762 whole entry): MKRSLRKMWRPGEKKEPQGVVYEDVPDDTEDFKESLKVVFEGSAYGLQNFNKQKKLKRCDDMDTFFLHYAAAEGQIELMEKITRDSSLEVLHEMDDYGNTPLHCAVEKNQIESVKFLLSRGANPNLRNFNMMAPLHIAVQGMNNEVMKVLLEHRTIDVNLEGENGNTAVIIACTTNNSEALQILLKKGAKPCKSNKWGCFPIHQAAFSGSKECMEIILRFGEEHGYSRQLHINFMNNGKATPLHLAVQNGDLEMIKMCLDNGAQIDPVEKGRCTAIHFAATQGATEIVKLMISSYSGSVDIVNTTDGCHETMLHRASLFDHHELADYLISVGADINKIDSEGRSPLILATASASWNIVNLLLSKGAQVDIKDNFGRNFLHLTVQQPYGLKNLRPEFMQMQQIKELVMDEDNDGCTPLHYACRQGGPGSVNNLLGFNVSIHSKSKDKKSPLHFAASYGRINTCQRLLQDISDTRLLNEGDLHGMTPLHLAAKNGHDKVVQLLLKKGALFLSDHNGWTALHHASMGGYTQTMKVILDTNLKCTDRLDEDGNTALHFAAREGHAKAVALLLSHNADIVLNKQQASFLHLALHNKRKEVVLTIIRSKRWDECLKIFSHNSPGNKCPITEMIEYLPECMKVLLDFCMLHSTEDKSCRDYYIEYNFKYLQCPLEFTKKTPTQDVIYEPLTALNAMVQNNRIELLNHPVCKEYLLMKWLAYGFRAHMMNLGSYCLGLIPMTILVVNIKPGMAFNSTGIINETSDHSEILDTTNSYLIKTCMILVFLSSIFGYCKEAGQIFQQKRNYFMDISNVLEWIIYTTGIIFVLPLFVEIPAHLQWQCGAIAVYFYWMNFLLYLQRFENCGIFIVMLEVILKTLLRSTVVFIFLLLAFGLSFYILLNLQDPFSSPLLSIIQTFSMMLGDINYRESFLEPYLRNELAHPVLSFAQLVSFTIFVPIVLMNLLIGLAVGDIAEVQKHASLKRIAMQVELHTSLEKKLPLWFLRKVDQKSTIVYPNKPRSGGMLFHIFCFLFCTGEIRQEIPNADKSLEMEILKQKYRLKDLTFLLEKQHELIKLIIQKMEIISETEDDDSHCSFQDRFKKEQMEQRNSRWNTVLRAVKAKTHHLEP

[5] = target: T3, Transient receptor potential cation channel subfamily A member 1; assay: Agonist activity at human TRPA1 expressed in T-REx HEK cells assessed as increase in intracellular Ca2+ accumulation by Fluo-4 AM dye based fluorescence assay relative to ionomycin; assay type: cell-based; design: concentration or dose not given beside the values
[6] = target: T2, Transient receptor potential cation channel subfamily M member 8; assay: Agonist activity at mouse TRPM8 expressed in T-REx HEK cells assessed as increase in intracellular Ca2+ accumulation by Fluo-4 AM dye based fluorescence assay; assay type: cell-based
[7] = Non-specific effect on intracellular Ca2+ accumulation in T-REx HEK cells; assay type: ADME, cell-based; settings: human
[8] = target: T3, Transient receptor potential cation channel subfamily A member 1; assay: Agonist activity at human TRPA1 expressed in T-REx HEK cells assessed as increase in intracellular Ca2+ accumulation by Fluo-4 AM dye based fluorescence assay; assay type: cell-based
[9] = target: T2, Transient receptor potential cation channel subfamily M member 8; assay: Antagonist activity against mouse TRPM8 expressed in T-REx HEK cells assessed as inhibition of icilin-induced increase in intracellular Ca2+ accumulation pre-incubated for 3 mins prior to icilin stimulation by Fluo-4 AM dye based fluorescence assay; assay type: cell-based
[10] = target: T3, Transient receptor potential cation channel subfamily A member 1; assay: Agonist activity at human TRPA1 expressed in T-REx HEK cells assessed as increase in intracellular Ca2+ accumulation in presence of TRPA1 antagonist HC-030031 by Fluo-4 AM dye based fluorescence assay; assay type: cell-based
[11] = target: T1, Transient receptor potential cation channel subfamily V member 1; assay: Agonist activity at human TRPV1 expressed in T-REx HEK cells assessed as increase in intracellular Ca2+ accumulation by Fluo-4 AM dye based fluorescence assay; assay type: cell-based
[12] = target: T2, Transient receptor potential cation channel subfamily M member 8; assay: Antagonist activity against mouse TRPM8 expressed in T-REx HEK cells assessed as inhibition of cold-induced increase in intracellular Ca2+ accumulation pre-incubated for 3 mins prior to cold stimulation by Fluo-4 AM dye based fluorescence assay; assay type: cell-based
[13] = target: Transient receptor potential cation channel subfamily M member 8 (Mus musculus) (UniProt Q8R4D5); assay: Agonist activity at mouse TRPM8 expressed in T-REx HEK cells assessed as increase in intracellular Ca2+ accumulation by Fluo-4 AM dye based fluorescence assay relative to ionomycin; assay type: cell-based
Chain of Transient receptor potential cation channel subfamily M member 8 (Mus musculus) (Q8R4D5 whole entry): as the sequence (Q8R4D5 whole entry) above

[14] = Non-specific effect on intracellular Ca2+ accumulation in T-REx HEK cells at >50 uM; assay type: ADME, cell-based; settings: human

T1 sequence (Q8NER1 whole entry): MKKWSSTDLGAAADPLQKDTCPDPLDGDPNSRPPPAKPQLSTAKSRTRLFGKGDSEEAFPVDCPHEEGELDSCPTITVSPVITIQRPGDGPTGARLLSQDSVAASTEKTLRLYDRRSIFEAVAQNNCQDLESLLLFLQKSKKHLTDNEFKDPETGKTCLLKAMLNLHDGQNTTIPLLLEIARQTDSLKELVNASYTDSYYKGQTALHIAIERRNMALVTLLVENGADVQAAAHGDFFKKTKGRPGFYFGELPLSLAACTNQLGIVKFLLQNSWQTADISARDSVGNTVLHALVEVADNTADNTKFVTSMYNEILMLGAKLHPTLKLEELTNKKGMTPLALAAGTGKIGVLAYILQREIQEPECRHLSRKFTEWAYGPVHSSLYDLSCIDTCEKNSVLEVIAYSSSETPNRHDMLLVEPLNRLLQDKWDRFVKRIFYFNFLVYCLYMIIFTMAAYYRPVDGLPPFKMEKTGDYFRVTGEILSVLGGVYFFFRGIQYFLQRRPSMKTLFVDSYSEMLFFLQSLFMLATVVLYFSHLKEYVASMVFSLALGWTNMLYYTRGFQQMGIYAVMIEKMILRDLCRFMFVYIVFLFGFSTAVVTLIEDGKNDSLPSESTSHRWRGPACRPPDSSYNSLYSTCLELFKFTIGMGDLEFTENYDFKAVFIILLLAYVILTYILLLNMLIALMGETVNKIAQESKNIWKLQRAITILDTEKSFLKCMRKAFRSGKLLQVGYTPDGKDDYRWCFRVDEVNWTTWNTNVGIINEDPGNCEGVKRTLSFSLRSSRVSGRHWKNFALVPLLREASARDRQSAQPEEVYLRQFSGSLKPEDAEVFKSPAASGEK

Compound	Activity [1]	IC50 ([2]; hek)	IC50 ([3]; read-out: IC50) [µM]	IC50 [4]	Activity [5]	EC50 ([6]; hek)	Activity [7]	EC50 ([8]; read-out: EC50) [µM]	IC50 ([9]; read-out: IC50) [µM]	Activity [10]	EC50 ([11]; read-out: EC50) [µM]	IC50 [12]	Activity [13]	IC50 ([2]; read-out: IC50) [µM]	EC50 ([11]; hek)	EC50 ([8]; hek)	Activity [14]	IC50 ([3]; hek)	EC50 ([6]; read-out: EC50) [µM]	IC50 ([9]; hek)
CCC1=C[C@@H]2CN3CCc4c([nH]c5ccccc45)[C@@](C(=O)OC)(C2)[C@@H]13 [CATHARANTHINE BASE]	13%	Not Active	0.7	Not Active	78%	Not Active	Non-toxic	9	0.9	inactive	20	Active	inactive							
CC[C@H]1C[C@H]2CN3Cn4c(c(COC)c5ccc(OC)cc54)[C@](C(=O)OC)(C2)[C@H]13	inactive		39	Not Active	68%	Not Active	Non-toxic	26	7	inactive		Not Active	inactive	> 200	Not Active					
Oc1cc2c(cc1O)CN(C(=S)NCCc1ccc(Cl)cc1)CCC2 [CAPSAZEPINE]	inactive			Not Active	inactive	Not Active			> 50			Active	inactive	0.068	Not Active	Not Active	Toxic			
COC(=O)[C@@]12C[C@@H]3C[C@H]([C@H](C)O)[C@@H]1N(CCc1c2[nH]c2ccc(OC)cc12)C3 [VOACRISTINE]	inactive			Not Active	80%		Non-toxic	30		inactive		Not Active	65%	> 200	Not Active			Not Active	27	Not Active
CC[C@H]1C[C@@H]2CN3CCc4c([nH]c5ccccc45)[C@@](C(=O)OC)(C2)[C@@H]13	32%	Not Active	0.6	Not Active	77%	Not Active	Non-toxic	8	0.6	inactive	7	Active	inactive							
C/C=C1/CC2[C@H](C(=O)OC)C(NC)Cc3c([nH]c4ccccc34)[C@@H](c3cc4c(cc3OC)C3CCN5C[C@H]6C[C@H](CC)[C@H]5[C@@](C(=O)OC)(C6)C3N4)C[C@H]12 (some centres undefined) [VOACAMINE]	inactive				inactive								inactive							
CC[C@H]1C[C@H]2CN3CC[C@@]4(O)C(=Nc5ccc(OC)cc54)[C@](C(=O)OC)(C2)[C@H]13	inactive		110	Not Active	87%	Not Active	Non-toxic	32	126	inactive		Not Active	inactive	141	Not Active					

Source: ChEMBL document CHEMBL3352571, “Identification of Indole Alkaloid Structural Units Important for Stimulus-Selective TRPM8 Inhibition: SAR Study of Naturally Occurring Iboga Derivatives” (J Nat Prod, 2014)
